Laboratory results as given in patent publication US20110091945A1, “METHODS OF INCREASING BIOMASS PRODUCTIVITY, LIPID INDUCTION, AND CONTROLLING METABOLITES IN ALGAE FOR PRODUCTION OF BIOFUELS USING BIOCHEMICAL STIMULANTS” (priority 2009, published 2011).

Assays:
Chlorella sorokiniana [1] = test: Biostimulant static culture batch study: biomass productivity; type: cell-based, Chlorella sorokiniana (UTEX 2805); details: for growth (biomass) increase over control: day not given; for growth (biomass) increase over control / effect on biomass / algal growth versus control, in words: dosage of Table 1; for effect on biomass / algal growth versus control, in words: day 5 and 10; for biomass (cell concentration / biomass productivity): 0.16 g/L with no biostimulants; for increase in biomass over control: dosage of Table 1 (NAA 5 ppm, PAA 30 ppm, IBA 10 ppm)
Protocol: (§1) The pH value of culture medium was adjusted to 7.0±0.2 before inoculation and the alga was maintained in a temperature controlled growth chamber at 25±1° C. and 100±10 μmoles/m^2/s light intensity provided by cool white fluorescent (6500K) T-8 bulbs.
(§2) • Selection of the biochemical stimulants: Ten biochemical stimulants were selected, including indole-acetic acid, naphthalene-acetic acid, and phenyl-acetic acid The structures are shown in FIGS. 1 and 2. • Biochemical stimulants: Naphthalene acetic acid (NAA), indole-butryic acid […], gibberellic acid, and kelp extract were obtained from Super-Grow Plant Care, Montreal, Canada; Zeatin, and thidiazuron were obtained from bioWORLD, GeneLinx International, Inc, Ohio, USA; phenyl-acetic acid was supplied by Sigma-Aldrich, St. Louis, Mo., USA.
(§3) The experiment devised for the testing of biostimulants was a static culture batch study performed in triplicates for all treatments. Samples were collected and analyzed on day 0, 5 and 10. The growth medium was comprised of 90 ml of BG11 with appropriate concentrations of various biostimulants. Biochemical stimulants were filter sterilized through 0.22 μm Whatman syringe filter to avoid bacterial contamination. Each flask received 10 ml inoculum of exponentially growing Chlorella sorokiniana. After inoculation, flasks were incubated in the environmental growth chamber for 10 days in a temperature controlled growth chamber at 25±1° C. and 100±10 μmoles/m^21s light intensity provided by cool white fluorescent (6500K) T-8 bulbs.
(§4) • Analysis: Optical density was measured at 750 nm using a UV/Visible Spectrophotometer (Varian Cary 50, Varian Inc, Palo Alto, Calif., USA). Chlorophyll content was estimated following the method of Porra et al., ((1989) Biochem. Biophys. Acta 975: 384-394, incorporated herein in its entirety). The carbohydrate and protein content were estimated using the well-known methods of Dubois and Lowry respectively. Biomass was determined by filtering 25 mL of culture using pre-weighed Whatman GF/C glass fiber filters (1.2 μm). The material was washed with deionized water, dried at 60° C. for 12 h, and weighed. Photosynthetic efficiency and kinetics were determined by chlorophyll a fluorescence analysis using a Pulse Amplitude Modulation Fluorometer (Mini-PAM Chlorophyll a Fluorometer, Heinz Walz GmbH, Effeltrich, Germany).

[2] = test system: callus tissue culture from tobacco; details: cited from earlier work
Chlorella sorokiniana [3] = test: Biostimulant static culture batch study: total carbohydrate content; type: cell-based, Chlorella sorokiniana (UTEX 2805); details: for effect on carbohydrate synthesis versus control, in words: day 5; for increase in carbohydrate over control: day 10
Protocol: as §1, §2, §3, §4

Chlorella sorokiniana [4] = test: Biostimulant static culture batch study: chlorophyll content; type: cell-based, Chlorella sorokiniana (UTEX 2805); parameters: increase in chlorophyll over control / decrease in chlorophyll content versus control: concentration or dose not given beside the values; details: for decrease in chlorophyll content versus control: day 5; for increase in chlorophyll over control: day 10
Protocol: as §1, §2, §3, §4

Dunaliella tertiolecta = details: 136 mg L^−1; cited from earlier work
[5] = test system: soy callus and radish cotyledon; details: cited from earlier work
Scenedesmus obliquus = details: 0.5% (v/v); cited from earlier work

Compound: C/C(=C\CNc1ncnc2[nH]cnc12)CO [Zeatin]
- growth (biomass) increase over control (Chlorella sorokiniana [1]): 27%
- activity relative to its cis isomer [2]: at least 50 times
- optimal dosage for maximum growth of callus tissue culture [2]: 10^−2 μM
- effect on carbohydrate synthesis versus control, in words (Chlorella sorokiniana [3]): reduced carbohydrates synthesis on day 5
- increase in carbohydrate over control (Chlorella sorokiniana [3]): 31%

Compound: [Cl][Fe]([Cl])[Cl] [ferric chloride]
- effect on biomass / algal growth versus control, in words (Chlorella sorokiniana [1]): only marginal increases and decreases on day 10 and 5
- decrease in chlorophyll content versus control (Chlorella sorokiniana [4]): 65%

Compound: CCNc1nc(Cl)nc(NC(C)C)n1 [atrazine]
- increase in lipid content relative to the control (Dunaliella tertiolecta): 101%
- reduction of protein content relative to the control (Dunaliella tertiolecta): 57%

Compound: C=C1C[C@]23C[C@@]1(O)CC[C@H]2[C@@]12C=C[C@H](O)[C@@](C)(C(=O)O1)[C@H]2[C@@H]3C(=O)O [GAA, gibberellic acid]
- effect on biomass / algal growth versus control, in words (Chlorella sorokiniana [1]): barely surpassed the control on day 5
- biomass (cell concentration / biomass productivity) (Chlorella sorokiniana [1]; day 10): ~0.28 g/L
- increase in biomass over control (Chlorella sorokiniana [1]; day 10, listed as GA): approximately 30%
- increase in biomass over control (Chlorella sorokiniana [1]; day 10, listed as GA3): 81%
- effect on chlorophyll synthesis, in words (Chlorella sorokiniana [4]): inhibiting chlorophyll synthesis throughout the growth period
- increase in chlorophyll over control (Chlorella sorokiniana [4]): 30%

Compound: O=C(O)CCCc1c[nH]c2ccccc12 [IBA, indole-butryic acid]
- increase in biomass over control (Chlorella sorokiniana [1]; day 5): 74%
- effect on biomass / algal growth versus control, in words (Chlorella sorokiniana [1]): stimulated biomass growth during the entire 0-10 day growth period
- biomass (cell concentration / biomass productivity) (Chlorella sorokiniana [1]; day 10): 0.28 g/L
- increase in biomass over control (Chlorella sorokiniana [1]; day 10): 76%
- effect on carbohydrate synthesis versus control, in words (Chlorella sorokiniana [3]): reduced carbohydrate contents on day 5
- effect on chlorophyll synthesis, in words (Chlorella sorokiniana [4]): marginal increase by day 5
- increase in chlorophyll over control (Chlorella sorokiniana [4]): 93%

Compound: O=C(Nc1ccccc1)Nc1cnns1 [TDZ, thidiazuron]
- increase in biomass over control (Chlorella sorokiniana [1]; day 10): approximately 30%
- growth (biomass) increase over control (Chlorella sorokiniana [1]): 33%
- increase in chlorophyll over control (Chlorella sorokiniana [4]): 30%
- optimal dose that generated maximum growth in soy callus and expansion of radish cotyledon [5]: 1 µM

Compound: CO [MeOH, methanol]
- increase in the growth rate (Scenedesmus obliquus): > 300%
- decrease in chlorophyll content versus control (Chlorella sorokiniana [4]): 45%

Compound: O=C(O)Cc1ccccc1 [PAA, Phenyl acetic acid]
- increase in biomass over control (Chlorella sorokiniana [1]; day 5): 95%
- increase in biomass over control (Chlorella sorokiniana [1]; day 10): 42%
- effect on carbohydrate synthesis versus control, in words (Chlorella sorokiniana [3]): reduced carbohydrate contents on day 5
- increase in carbohydrate over control (Chlorella sorokiniana [3]): 27%
- decrease in chlorophyll content versus control (Chlorella sorokiniana [4]): 37%
